Experimental data as given in US20240033228A1, “MESOPOROUS NANOPARTICLES SYSTEM TO INCREASE THE BIOFILM ERADICATION ACTIVITY BY MEANS OF THE CARRYING AND THE ADMINISTRATION OF AT LEAST ONE ACTIVE INGREDIENT AND RELATED PRODUCTION METHOD” (Brenta S.r.l., priority 2020, published 2024).
≈ marks a conversion by molar mass, not a printed value.

Experiments:
[1] = footnote a not given; cited from earlier work
[2] = water; cited from earlier work
K. pneumoniae biofilm = assay: Biofilm eradication test (MBEC assay with Calgary Biofilm Device); format: cell-based, Klebsiella pneumoniae
Experimental: The eradication tests were performed by adding free or loaded and/or supported API after the maturation of a biofilm for 24 hours. VCN was tested against S. aureus and NTF against […]. […] The log reduction was calculated according to the following formula: Log reduction (LR)=Log10(mean number of CPUs without […] number of CFUs after treatment), where CFUs are Colony Formation Units. Correspondingly, the eradication percentage P was calculated according to the following formula: […] Testing was performed by MBEC assay with Calgary Biofilm Device.

S. aureus = assay: Plate antimicrobial tests; format: cell-based; conditions: plate test; strain not given
Experimental: (§1) Plate antimicrobial tests were conducted to verify the inactivity of the nanoparticles and to confirm that the antibacterial activity is linked to being loaded with at least one API. The negative control corresponds to S. aureus and K. pneumoniae without API.

K. pneumoniae = assay: Plate antimicrobial tests; format: cell-based; conditions: plate test; strain not given
Experimental: as §1

S. aureus biofilm = assay: Biofilm eradication test (MBEC assay with Calgary Biofilm Device); format: cell-based, Staphylococcus aureus
Experimental: The eradication tests were performed by adding free or loaded and/or supported API after the maturation of a biofilm for 24 hours.
VCN was tested against S. aureus and NTF against T. pneumoniae.
The log reduction was calculated according to the following formula:
Log reduction (LR)=Log10(mean number of CPUs without reatment)/(mean number of CFUs after treatment), where CFUs are Colony Formation Units.
Correspondingly, the eradication percentage P was calculated according to the following formula: […]
Testing was performed by MBEC assay with Calgary Biofilm Device.

SMILES: COc1ccc2c(c1)c(CC(=O)O)c(C)n2C(=O)c1ccc(Cl)cc1 [INDM]
- LogP [1]: 4.27
- Solubility H2O [2]: 80 µg/mL (≈ 224 µM)

SMILES: O=C1CN(/N=C/c2ccc([N+](=O)[O-])o2)C(=O)N1 [NTF, Nitrofurantoin]
- Log Reduction Log (CFU/ml) ± SD (K. pneumoniae biofilm; K. pneumoniae preformed biofilm (24 hours), highest concentration tested): 2.5 ± 1.0 Log (CFU/ml)
- P (%) eradication percentage (K. pneumoniae biofilm; K. pneumoniae preformed biofilm, P=[1−10^−LR]*100): 99.7%
- Solubility H2O [2]: 80 µg/mL (≈ 336 µM)

SMILES: CC(=O)N[C@@H](CS)C(=O)O [NAC, N-acetyl-L-cysteine]
- LogP [1]: −0.03
- concentration below which no antibacterial activity is exhibited (S. aureus): 1 to 2 mg/mL
- concentration below which no antibacterial activity is exhibited (K. pneumoniae): 1 to 2 mg/mL

SMILES: CN[C@H](CC(C)C)C(=O)N[C@H]1C(=O)N[C@@H](CC(N)=O)C(=O)N[C@H]2C(=O)N[C@H]3C(=O)N[C@H](C(=O)N[C@H](C(=O)O)c4cc(O)cc(O)c4-c4cc3ccc4O)[C@H](O)c3ccc(c(Cl)c3)Oc3cc2cc(c3O[C@@H]2O[C@H](CO)[C@@H](O)[C@H](O)[C@H]2O[C@H]2C[C@](C)(N)[C@H](O)[C@H](C)O2)Oc2ccc(cc2Cl)[C@H]1O [VCN, vancomycin]
- Solubility H2O [2]: >50000 µg/mL
- Log Reduction Log (CFU/ml) ± SD (S. aureus biofilm; S. aureus preformed biofilm (24 hours), highest concentration tested): 2.0 ± 0.4 Log (CFU/ml)
- P (%) eradication percentage (S. aureus biofilm; S. aureus preformed biofilm, P=[1−10^−LR]*100): 99.0%
